In US8450527B2, “Amine derivative compounds for treating ophthalmic diseases and disorders” (Acucela Inc., priority 2007, dated 2013):

How the values were obtained:
visual cycle isomerase = target: T1, visual cycle isomerase (Bos taurus, UniProt Q28175); test: In vitro isomerase inhibition assay, bovine RPE microsome membranes; format: biochemical; conditions: inhibition of 11-cis retinol formation; values given as ranges
T1 construct: Bovine Retinal Pigment Epithelium (RPE) microsome membranes were the source of a visual cycle isomerase; from tissue; host or cells: bovine retinal pigment epithelium microsome membranes; CRALBP made in E. coli
T1 sequence (Q28175 2-533 limits assumed): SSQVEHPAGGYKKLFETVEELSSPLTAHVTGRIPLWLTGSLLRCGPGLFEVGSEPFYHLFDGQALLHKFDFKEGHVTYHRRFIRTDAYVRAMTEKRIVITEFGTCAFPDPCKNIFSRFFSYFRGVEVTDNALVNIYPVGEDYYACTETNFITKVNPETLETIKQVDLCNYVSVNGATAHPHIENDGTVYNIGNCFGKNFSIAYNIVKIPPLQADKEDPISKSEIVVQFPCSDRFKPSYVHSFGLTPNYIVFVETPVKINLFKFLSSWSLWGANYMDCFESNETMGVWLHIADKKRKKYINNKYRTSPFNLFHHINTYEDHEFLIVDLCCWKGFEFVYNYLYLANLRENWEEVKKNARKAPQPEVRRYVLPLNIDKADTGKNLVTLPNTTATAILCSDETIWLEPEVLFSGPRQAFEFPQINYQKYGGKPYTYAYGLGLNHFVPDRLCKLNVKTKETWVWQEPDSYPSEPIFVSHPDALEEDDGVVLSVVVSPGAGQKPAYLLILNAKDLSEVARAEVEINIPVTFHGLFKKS
Method: The capability of amine derivative compounds to inhibit the activity of a visual cycle isomerase was determined
Isomerase inhibition reactions were performed essentially as described (Stecher et al., J. Biol. Chem. 274:8577-85 (1999); see also Golczak et al., Proc. Natl. Acad. Sci. USA 102:8162-67 (2005)). Bovine Retinal Pigment Epithelium (RPE) microsome membranes were the source of a visual cycle isomerase.
Bovine RPE microsome membrane extracts were prepared according to methods described (Golczak et al., Proc. Natl. Acad. Sci. USA 102:8162-67 (2005)) and stored at −80° C. Crude RPE microsome extracts were thawed in a 37° C. water bath, and then immediately placed on ice. 50 ml crude RPE microsomes were placed into a 50 ml Teflon-glass homogenizer (Fisher Scientific, catalog no. 0841416M) on ice, powered by a hand-held DeWalt drill, and homogenized ten times upand down on ice under maximum speed. This process was repeated until the crude RPE microsome solution was homogenized. The homogenate was then subjected to centrifugation (50.2 Ti rotor (Beckman, Fullerton, Calif.), 13,000 RPM; 15360 Rcf) for 15 minutes at 4° C. The supernatant was collected and subjected to centrifugation at 42,000 RPM (160,000 Rcf; 50.2 Ti rotor) for 1 hour at 4° C. The supernatant was removed, and the pellets were suspended in 12 ml (final volume) cold 10 mM MOPS buffer, pH 7.0. The resuspended RPE membranes in 5 ml aliquots were homogenized in a glass-to-glass homogenizer (Fisher Scientific, catalog no.K885500-0021) to high homogeneity. Protein concentration was quantified using the BCA protein assay according to the manufacturer's protocol (Pierce, Rockford, Ill.). The homogenized RPE preparations were stored at −80° C.
Recombinant human apo cellular retinaldehyde-binding protein (CRALBP) was cloned and expressed according to standard methods in the molecular biology art (see Crabb et al., Protein Science 7:746-57 (1998); Crabb et al., J. Biol. Chem. 263:18688-92 (1988)). Briefly, total RNA was prepared from confluent ARPE^19 cells (American Type Culture Collection, Manassas, Va.), cDNA was synthesized using an oligo(dT)12-18 primer, and then DNA encoding CRALBP was amplified by two sequential polymerase chain reactions (see Crabb et al., J. Biol. Chem. 263:18688-92 (1988); Intres, et al., J. Biol. Chem. 269:25411-18 (1994); GenBank Accession No. L34219.1). The PCR product was sub-cloned into pTrcHis2-TOPO TA vector according to the manufacturer's protocol (Invitrogen Inc., Carlsbad, Calif.; catalog no. K4400-01), and then the sequence was confirmed according to standard nucleotide sequencing techniques. Recombinant 6×His-tagged human CRALBP was expressed in One Shot TOP 10 chemically competent E. coli cells (Invitrogen), and the recombinant polypeptide was isolated from E. coli cell lysates by nickel affinity chromatography using nickel (Ni) Sepharose XK16-20 columns for HPLC (Amersham Bioscience, Pittsburgh, Pa.; catalog no.17-5268-O2). The purified 6×His-tagged human CRALBP was dialyzed against 10 mM bis-tris-Propane (BTP) and analyzed by SDS-PAGE. The molecular weight of the recombinant human CRALBP was approximately 39 kDal.
Amine derivative compounds and control compounds were reconstituted in ethanol to 0.1 M. Ten-fold serial dilutions (10^−2, 10^−3, 10^−4, 10^−5, 10^−6 M) in ethanol of each compound were prepared for analysis in the isomerase assay.
The isomerase assay was performed in 10 mM bis-tris-propane (BTP) buffer, pH 7.5, 0.5% BSA (diluted in BTP buffer), 1 mM sodium pyrophosphate, 20 μM all-trans retinol (in ethanol), and 6 μM apo-CRALBP. The test compounds (2 μl) (final 1/15 dilution of serial dilution stocks) were added to the above reaction mixture to which RPE microsomes were added. The same volume of ethanol was added to the control reaction (absence of test compound). Bovine RPE microsomes (9 μl) (see above) were then added, and the mixtures transferred to 37° C. to initiate the reaction (total volume=150 μl). […]

isomerase = target: T2, isomerase (Mus musculus, UniProt Q91ZQ5); test: In vivo murine isomerase assay (recovery of 11-cis-retinal after photobleaching); parameters: species or system CD-1 (albino) male mice; conditions: CD1 male mice, single oral dose 1 mg/kg, photobleaching 4 h post dosing
T2 construct: The recovery of 11-cis-retinal after bleaching can be used to estimate the activity of isomerase in vivo; from tissue; host or cells: eye (RPE) of living CD-1 albino male mice
T2 sequence (Q91ZQ5 1-533): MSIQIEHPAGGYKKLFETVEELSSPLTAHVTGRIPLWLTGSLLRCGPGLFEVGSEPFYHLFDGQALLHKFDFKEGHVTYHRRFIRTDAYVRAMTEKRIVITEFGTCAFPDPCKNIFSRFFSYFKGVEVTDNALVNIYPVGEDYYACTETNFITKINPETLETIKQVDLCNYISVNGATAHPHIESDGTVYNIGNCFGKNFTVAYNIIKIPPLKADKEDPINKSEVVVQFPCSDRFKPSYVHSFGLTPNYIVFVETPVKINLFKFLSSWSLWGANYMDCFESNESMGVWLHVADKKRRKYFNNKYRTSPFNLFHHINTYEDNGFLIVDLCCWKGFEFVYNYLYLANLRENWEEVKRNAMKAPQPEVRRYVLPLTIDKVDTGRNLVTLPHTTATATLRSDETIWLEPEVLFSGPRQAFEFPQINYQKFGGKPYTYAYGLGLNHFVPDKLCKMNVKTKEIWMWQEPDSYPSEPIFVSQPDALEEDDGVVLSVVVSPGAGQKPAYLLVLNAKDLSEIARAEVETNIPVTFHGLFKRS
Method: The capability of amine derivative compounds to inhibit isomerase was determined by an in vivo murine isomerase assay. Brief exposure of the eye to intense light (“photobleaching” of the visual pigment or simply “bleaching”) is known to photo-isomerize almost all 11-cis-retinal in the retina. The recovery of 11-cis-retinal after bleaching can be used to estimate the activity of isomerase in vivo.
Delayed recovery, as represented by lower 11-cis-retinal oxime levels, indicates inhibition of isomerization reaction. Procedures were performed essentially as described by Golczak et al., Proc. Natl. Acad. Sci. USA 102:8162-67 (2005). See also Deigner et al., Science, 244: 968-71 (1989); Gollapalli et al., Biochim Biophys Acta. 1651: 93-101 (2003); Parish, et al., Proc. Natl. Acad. Sci. USA, 14609-13 (1998); Radu, et al., Proc Natl Acad Sci USA 101: 5928-33 (2004).
[…] Mice were orally gavaged with the several of the amine derivative compounds described herein. After 1-48 hours in the dark, the mice were exposed to photobleaching of 5,000 lux of white light for 10 minutes. The mice were allowed to recover 2 hours in the dark. The animals were then sacrificed by carbon dioxide inhalation. Retinoids were extracted from the eye and the regeneration of 11-cis-retinal was assessed at various time intervals.
All steps were performed in darkness with minimal redlight illumination (low light darkroom lights and redfiltered flashlights for spot illumination as needed) (see, e.g., Maeda et al., J. Neurochem 85:944-956, 2003; Van Hooser et al., J Biol Chem 277:19173-82, 2002). After the mice were sacrificed, the eyes were immediately removed and placed in liquid nitrogen for storage.
The eyes were placed in 500 μL of bis-tris propane buffer (10 mM, pH ˜7.3) and 20 μL of 0.8M hydroxylamine (pH˜7.3). The eyes were cut up into small pieces with small iris scissors and then thoroughly homogenized at 30000 rpm with a mechanical homogenizer (Polytron PT 1300 D) in the tube until no visible tissue remained. 500 μL of methanol and 500 μL of heptane were added to each tube. The tubes were attached to a vortexer so that the contents were mixed thoroughly for 15 minutes in room temperature. The organic phase was separated from the aqueous phase by centrifugation for 10 min at 13K rpm, 4° C. 240 μL of the solution from the top layer (organic phase) was removed and transferred to clean 300 μl glass inserts in HPLC vials using glass pipette and the vials were crimped shut tightly.
The samples were analyzed on an Agilent 1100 HPLC system with normal phase column: SILICA (Beckman Coutlier, dp 5 μm, […]). The running method has a flow rate of 1.5 ml/min; solvent components are 15% solvent 1 (1% isopropanol in ethyl acetate), and 85% solvent 2 (100% hexanes). Loading volume for each sample is 100 μl; detection wavelength is 360 nm. The area under the curve for 11-cis retinal oxime was calculated by Agilent Chemstation software and was recorded manually. Data processing was performed using Prizm software.
Positive control mice (no compound administered) were sacrificed fully dark-adapted and the eye retinoids analyzed. Light (bleached) control mice (no compound administered) were sacrificed and retinoids isolated and analyzed immediately after light treatment. The animals were orally gavaged with 1 mg/kg compound, then “photo-bleached” (5000 Lux white light for 10 minutes) at 4, 24 and 48 hours after dosing, and returned to darkness to allow recovery of the 11-cis-retinal content of the eyes. Mice were sacrificed 2 hours after bleaching, eyes were enucleated, and retinoid content was analyzed by HPLC.
A dose response in vivo isomerase inhibition study was performed with several of the amine derivative compounds described herein. Six-week old dark-adapted CD-1 (albino) male mice were orally gavaged with 0.03, 0.1, 0.3, 1 and 3 mg/kg of compound in sterile water as solution, and photobleached 4 hours after dosing. […]

Row | SMILES | IC50 (visual cycle isomerase) [µM] | % Inhibition 1 mg/kg 4 h (isomerase) [%]
1 | Cc1cccc(C)c1CCc1cccc(CCCN)c1 [Example 1, 3-(3-(2,6-dimethylphenethyl)phenyl)propan-1-amine] | 1 to 10 | 
2 | NCCC(O)c1cccc(CCCCCCO)c1 (stereo not shown) [Example 59, 6-(3-(3-amino-1-hydroxypropyl)phenyl)hexan-1-ol] |  | 14
3 | CCCC(O)(CCC)CCc1cccc([C@@H](O)CCN)c1 [Example 70, (S)-4-(3-(3-amino-1-hydroxypropyl)phenethyl)heptan-4-ol] |  | 100
4 | CCCC(O)(CCC)CCc1cccc([C@H](O)CCN)c1 [Example 71, (R)-4-(3-(3-Amino-1-hydroxypropyl)phenethyl)heptan-4-ol] |  | 67
5 | NCCC(O)c1cccc(CCc2ccccc2)c1 (stereo not shown) [Example 85, 3-amino-1-(3-phenethylphenyl)propan-1-ol] |  | 70
6 | CC(C)CCCc1cccc(C(O)CCN)c1 (stereo not shown) [Example 90, 3-amino-1-(3-(4-methylpentyl)phenyl)propan-1-ol] |  | 84
7 | NCCOc1cccc(CCC2CCCCC2O)c1 (stereo not shown) [Example 99, 2-(3-(2-aminoethoxy)phenethyl)cyclohexanol] |  | 22
8 | NCCC(O)c1cccc(CCC2CCCCC2O)c1 (stereo not shown) [Example 100, 2-(3-(3-amino-1-hydroxypropyl)phenethyl)cyclohexanol] |  | 9
9 | CCCC(C)(O)CCc1cccc(C(O)CCN)c1 (stereo not shown) [Example 109, 1-(3-(3-amino-1-hydroxypropyl)phenyl)-3-methylhexan-3-ol] |  | 79
10 | NCCC(O)c1cccc(CCC2CCCCO2)c1 (stereo not shown) [Example 110, 3-amino-1-(3-(2-(tetrahydro-2H-pyran-2-yl)ethyl)phenyl)propan-1-ol] |  | 61
11 | CCC(O)(CC)CCc1cccc(C(O)CCN)c1 (stereo not shown) [Example 113, 1-(3-(3-amino-1-hydroxypropyl)phenyl)-3-ethylpentan-3-ol] |  | 87
12 | CCCC(O)(CCC)CCc1cccc(SCCN)c1 [Example 134, 4-(3-(2-aminoethylthio)phenethyl)heptan-4-ol] |  | 6
13 | CCCC(O)(CCC)CCc1cc(C(O)CCN)ccc1F (stereo not shown) [Example 140, 4-(5-(3-amino-1-hydroxypropyl)-2-fluorophenethyl)heptan-4-ol] |  | 87
14 | NCC#Cc1cccc(CS(=O)(=O)C2CCCCC2)c1 [Example 157, 3-(3-(cyclohexylsulfonylmethyl)phenyl)prop-2-yn-1-amine] |  | 0
15 | NCCOc1cccc(C(=O)NC2CCCCC2)c1 [Example 164, 3-(2-aminoethoxy)-N-cyclohexylbenzamide] |  | 0
16 | NCCCc1cccc(CCC2CCCCC2O)c1 (stereo not shown) [Example 187, 2-(3-(3-aminopropyl)phenethyl)cyclohexanol] |  | 9
